# Measured values as given in patent publication US11124774B2, “Engineered liver tissues, arrays thereof, and methods of making the same” (Organovo, Inc., priority 2013, dated 2021).
# Tested on: bioprinted hepatic stellate cell tissues
# Assay: Stimulation of bioprinted hepatic stellate cell tissues with cytokine
# Format: cell-based, human
# Experimental: FIG. 15 is a non-limiting example of stimulation of bioprinted hepatic stellate cell tissues with TGF-β1.
# Cylindrical bio-ink comprising relevant heterogeneous (i.e., polytypic) cell populations were prepared. Physiologically-relevant populations (e.g., hepatic stellate cells (hSC) and human aortic endothelial cells (EC)) of cells were combined at specific ratios to generate proper bio-ink. Cells were maintained and propagated under standard laboratory conditions and cells were cultured in media either purchased from the same vendor as the cells, or media comprising components typically found in the primary literature to be conducive to standard cell culture practices for those particular cell types. Cell processing for bio-ink preparation was as follows: briefly, cells were liberated from standard tissue culture plastic by washing with cation-free phosphate buffered saline (PBS) and then exposed to 0.1-0.05% trypsin (Invitrogen). Liberated cells were then washed in serum-containing media, collected, counted, and combined in an appropriate ratio for the stimulation assay or experiment being conducted, and pelleted by centrifugation. Supernatant was then removed and the cell pellet was aspirated into a glass microcapillary, which was then submerged in complete media for approximately 15 to 20 minutes. This cylindrical bio-ink structure was then extruded into a non cell-adherent hydrogel mold, containing linear channels and held for 2 to 18 hours. Cylindrical bio-ink containing hSC:EC was then used to fabricate bioprinted tissue constructs and maintained and/or matured in a humidified chamber. Tissue segments were fabricated with initial dimensions of 1.25 mm×8 mm×0.25 mm (W×L×H). During the post-bioprinting maturation period some constructs were exposed to the cytokine TGF-β1 to elicit a tissue-specific response (see FIG. 15).
# The bioprinted neotissues were then submerged in serum-containing complete cell culture media and placed in a standard humidified chamber, supplemented with 5% CO2 for maturation. The bioprinted neotissues were then cultured and stimulated with a relevant cytokine(s) for a predetermined period of time, formalin-fixed, harvested, and processed for standard histology and immunohistochemistry. The bioprinted tissues were evaluated for characteristics such as, but not limited to for tissue morphology, cell organization, extracellular matrix production, cell proliferation, cell viability, and construct integrity.
# Cytokine stimulation was conducted by adding cytokine directly to the culture media and incubating the bioprinted tissues with the added protein to provide direct and prolonged cell access to the proper stimulus. […]
# [1] = 0-50 ng/mL, tissue sections of bioprinted hepatic stellate-containing tissues (FIG. 15E-H)
substance,measurement,setting,value
TGF-β1: cytokine (transforming growth factor beta 1) used to elicit a tissue-specific response in bioprinted tissues,cell density,[1],dramatic decreases in cell density
same,collagen deposition (Trichrome staining),[1],increases in collagen deposition
same,construct size,[1],increases
same,tissue outgrowth formation (gross observation),"increasing concentrations 0, 1, 10, 50 ng/mL, bioprinted hepatic stellate cell sheets (FIG. 15A-D)",increases in tissue outgrowth formation
